Measured values: patent US20090196869A1, “ANTITUMOR COMBINATIONS CONTAINING TAXANE DERIVATIVES” (SANOFI-AVENTIS, priority 2006, published 2009)

Columns and labels:
[1] = test system: Human breast carcinoma UISO-BCA-1; assay: Antitumor activity in Human Mammary UISO-BCA-1 xenografted in nude mice (3-arm dose-response); format: in vivo; conditions: for sensitivity of the UISO-BCA-1 xenograft to the agent: characterisation of the tumor model, monotherapy; for (T-C) days / CR / TFS d121 / log cell kill: acetocyclopropyl taxotere alone, day 17, 21, 25
Procedure: This efficacy may be quantified, for example, by the log10 cells killed, which is determined according to the following formula: […]
A product is considered to be active if log10 cells killed is greater than or equal to 0.7. A product is considered to be very active if log10 cells killed is greater than 2.8.
The combination, used at its own maximum tolerated dose, in which each of the constituents will be present at a dose generally not exceeding its maximum tolerated dose, will manifest therapeutic synergy when the log10 cells killed is greater than the value of the log10 cells killed of the best constituent when it is administered alone.
(§1) The animals subjected to the experiment, generally mice, are subcutaneously grafted bilaterally with 30 to 60 mg of a tumor fragment on day 0. The animals bearing tumors are mixed before being subjected to the various treatments and controls. In the case of treatment of advanced tumors, tumors are allowed to develop to the desired size, animals having insufficiently developed tumors being eliminated. The selected animals are distributed at random to undergo the treatments and controls. […] The different animal groups are weighed 3 or 4 times a week until the maximum weight loss is reached, and the groups are then weighed at least once a week until the end of the trial.
The tumors are measured 2 or 3 times a week until the tumor reaches approximately 2 g, or until the animal dies if this occurs before the tumor reaches 2 g. The animals are autopsied when sacrificed.
The tumor model used to evaluate each drug combination was selected, in general, on the basis of its responsiveness to each of the agents when used as monotherapy. Using i.v. intermittent schedules, full dose response trials were conducted for each single agent and each combination. In the present case, the selected tumor was a Human breast carcinoma UISO-BCA-1 derived from a malignant pleural effusion. The primary tumor was well-differentiated infiltrating ductal carcinoma of the breast. Radiotherapy post mastectomy was practiced. Three years after, chemotherapy to treat a left supraclavicular mass was done (10 courses with cytoxan, methotrexate, 5-Fu and Tamoxifen). […] This tumor model was established in nude mice from a 2.10^7 cell implant, and maintained by serial sc passage as tumor fragment.

[2] = Toxicity (drug deaths, body weight loss, highest non-toxic dose) in tumor-bearing nude mice; format: in vivo; conditions: for % bwl at nadir / Drug deaths: acetocyclopropyl taxotere alone, day 17, 21, 25
Procedure: as §1

[3] = iv 12.4 mg/kg/day (total 37.2 mg/kg)
[4] = iv 20.0 mg/kg/day (total 60.0 mg/kg)
[5] = iv 32.3 mg/kg/day (total 96.9 mg/kg)
[6] = iv 52.1 mg/kg/day (total 156.3 mg/kg)
[7] = single agent, iv day 17, 21, 25

Compound: O=P1(N(CCCl)CCCl)NCCCO1 (centres unmarked) [cyclophosphamide, reference compound]
- sensitivity of the UISO-BCA-1 xenograft to the agent [1]: poorly sensitive

Compound: CC(=O)O[C@@]12CO[C@@H]1C[C@H](O)[C@@]1(C)C(=O)[C@H](O)C3=C(C)[C@@H](OC(=O)[C@H](O)[C@@H](NC(=O)OC(C)(C)C)c4ccccc4)C[C@@](O)([C@@H](OC(=O)c4ccccc4)[C@H]21)C3(C)C [docetaxel, reference compound]
- sensitivity of the UISO-BCA-1 xenograft to the agent [1]: resistant

Compound: CC(=O)O[C@H]1C(=O)[C@]23C[C@H]2C[C@H]2OC[C@@]2(OC(C)=O)[C@H]3[C@H](OC(=O)c2ccccc2)[C@]2(O)CC(OC(=O)[C@H](O)C(NC(=O)OC(C)(C)C)c3ccccc3)C(C)=C1C2(C)C (some centres unmarked) [acetocyclopropyl taxotere]
- (T-C) days [1, 3]: 1.8 days
- CR [1, 3]: 0/8
- TFS d121 [1, 3]: 0/8
- log cell kill [1, 3]: 0.1
- (T-C) days [1, 4]: 6.0 days
- CR [1, 4]: 0/8
- TFS d121 [1, 4]: 0/8
- log cell kill [1, 4]: 0.4
- (T-C) days [1, 5]: 20.8 days
- CR [1, 5]: 0/8
- TFS d121 [1, 5]: 0/8
- log cell kill [1, 5]: 1.3
- CR ([1]; iv 32.3 mg/kg/day (total 96.9 mg/kg), listed as acetyl cyclopropyl docetaxel): no regression
- sensitivity of the UISO-BCA-1 xenograft to the agent [1]: sensitive
- % bwl at nadir [2, 3]: 0.5%
- Drug deaths [2, 3]: 0/8
- % bwl at nadir [2, 4]: 0.5%
- Drug deaths [2, 4]: 0/8
- % bwl at nadir [2, 5]: 5.2%
- Drug deaths [2, 5]: 0/8
- % bwl at nadir [2, 6]: 7.2%
- Drug deaths [2, 6]: 2/8
- highest non-toxic dose [2, 7]: 32.3 mg/kg per injection
- highest non-toxic dose, total dose [2, 7]: 96.9 mg/kg

Compound: O=c1[nH]cc(F)c(=O)[nH]1 [5-Fluorouracil, reference compound]
- sensitivity of the UISO-BCA-1 xenograft to the agent [1]: sensitive

Compound: CC[C@]1(O)C[C@H]2CN(CCc3c([nH]c4ccccc34)[C@@](C(=O)OC)(c3cc4c(cc3OC)N(C=O)[C@H]3[C@@](O)(C(=O)OC)[C@H](OC(C)=O)[C@]5(CC)C=CCN6CC[C@]43[C@@H]65)C2)C1 [vincristine, reference compound]
- sensitivity of the UISO-BCA-1 xenograft to the agent [1]: poorly sensitive

Compound: COc1cccc2c1C(=O)c1c(O)c3c(c(O)c1C2=O)C[C@@](O)(C(=O)CO)C[C@@H]3O[C@H]1C[C@H](N)[C@H](O)[C@H](C)O1 [doxorubicin, reference compound]
- sensitivity of the UISO-BCA-1 xenograft to the agent [1]: poorly sensitive
